The structures appear in SMILES notation.

This assay deals with PRC-1 (Pseudomonas wenzhouensis, UniProt Z9ZEF5EQX5). Description: nitrocefin hydrolysis inhibition, spectrophotometry. It counts as biochemical. The following applies: 100 μM nitrocefin, 5 min preincubation, 37°C; covalent.
PRC-1, sequence (Z9ZEF5EQX5 23-379 limits assumed): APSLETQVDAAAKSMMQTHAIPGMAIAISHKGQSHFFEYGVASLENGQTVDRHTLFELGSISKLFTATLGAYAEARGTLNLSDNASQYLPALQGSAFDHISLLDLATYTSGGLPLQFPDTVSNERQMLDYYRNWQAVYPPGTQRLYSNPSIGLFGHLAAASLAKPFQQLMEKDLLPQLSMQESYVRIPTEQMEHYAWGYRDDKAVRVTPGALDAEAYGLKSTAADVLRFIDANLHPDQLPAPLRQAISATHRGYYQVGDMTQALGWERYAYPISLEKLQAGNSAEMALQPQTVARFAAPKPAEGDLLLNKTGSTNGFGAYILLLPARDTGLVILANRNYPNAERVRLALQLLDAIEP

One may read the IC50 as the midpoint of a concentration-inhibition curve. Compound `NC(=O)[C@@H]1CC[C@@H]2CN1C(=O)N2OS(=O)(=O)O` [avibactam] came in with an IC50 of 0.000392 µM.
The same measure for `O=C(O)[C@H]1/C(=C/CO)O[C@@H]2CC(=O)N21` [clavulanic acid]: 23.4 µM.

The record behind these values is PMC8719060, “Characterization of a Novel Chromosome-Encoded AmpC β-Lactamase Gene, blaPRC–1, in an Isolate of a Newly Classified Pseudomonas Species, Pseudomonas wenzhouensis A20, From Animal Farm Sewage” (Frontiers in Microbiology, 2021).
